Source: US7189760B2, “Physiological cooling compositions containing highly purified ethyl ester of N-[[5-methyl-2-(1-methylethyl) cyclohexyl] carbonyl]glycine” (Millennium Specialty Chemicals, priority 2004, dated 2007)

What was measured:
[1] = visual and organoleptic test of aqueous solution of the product; assay type: in vivo; details: 25 ppm aqueous solution
Excerpt: (§1) Further, the aqueous solutions of products for organoleptic tests were obtained by dissolving appropriate amounts of the products in dipropylene glycol DPG and adding the solution in DPG to an appropriate amount of water.

[2] = lower threshold = stronger coolant; data of U.S. Pat. Nos. 4,060,091 etc.; cited from earlier work
[3] = cited from earlier work; for sensitivity threshold (corrected data): J. Soc. Cosmet. Chem., 1978, vol. 29, pp. 185–200
[4] = sensitivity threshold (cooling strength) of N-monosubstituted p-menthane-3-carboxamides, prior-art patents; assay type: in vivo; details: from patent thresholds 0.2 vs 0.3 μg
Excerpt: With specific reference to structure 6, substituent “X” is commonly selected from the lower linear or branched alkyl substituents, functionally substituted alkyl substituents, or aryl substituents. To that end, U.S. Pat. Nos. 4,060,091; 4,136,163; 4,150,052; 4,178,459; 4,193,936; and 4,226,988, the entire disclosures of which are hereby incorporated by reference for all purposes, give a comparison of cooling strengths of certain N-monosubstituted p-menthane-3-carboxamides numerically expressed as sensitivity thresholds in μg, wherein a lower threshold value correlates to a stronger coolant effect. Of the compared compounds, the only commercially used N-monosubstituted p-menthane-3-carboxamide compound is the WS-3 coolant, having a sensitivity threshold of 0.3 μg.

volatility = assay type: physicochemical; details: compared with menthol
[5] = comparison of cooling strength to WS-3 in oral application; assay type: in vivo; details: for cooling strength relative to WS-3 (times stronger): aqueous solutions, vs 10 ppm WS-3
Experimental: as §1
A comparison basis aqueous solution of WS-3 (compound 5) was prepared containing 10 ppm concentration of WS-3.
Aqueous solutions were prepared containing various concentrations of the purified compound 10: 2 ppm, 3 ppm, 4 ppm, 5 ppm, and higher. These solutions were tested in oral application in comparison to the basis solution of 10 ppm of WS-3.
Aqueous solutions were prepared containing various concentrations of the purified compound 10: 2 ppm, 3 ppm, 3.5 ppm, 4 ppm, 5 ppm, and higher. These solutions were tested in oral application in comparison to the basis solution of 10 ppm of WS-3.

| SMILES | tingling/cooling sensation [1] | sensitivity threshold [2] [µg] | other results |
| --- | --- | --- | --- |
| CCOC(=O)CNC(=O)C1CC(C)CCC1C(C)C (stereo not drawn) [Comparative Synthetic and Organoleptic Example 2 after the a] [ethyl ester of N-[[5-methyl-2-(1-methylethyl)cyclohexyl]carbonyl]glycine, reference compound] | strong tingling/cooling sensation |  |  |
| CCOC(=O)CNC(=O)C1CC(C)CCC1C(C)C (stereo not drawn) [Inventive Example 2, ethyl ester of N-[[5-methyl-2-(1-methylethyl)cyclohexyl]carbonyl]glycine] | very strong tingling/cooling sensation |  |  |
| Cc1ccc(NC(=O)C2CC(C)CCC2C(C)C)cc1O (stereo not drawn) [compound 8] |  | 0.1 |  |
| Cc1ccc(NC(=O)C2CC(C)CCC2C(C)C)cc1C (stereo not drawn) [compound 7] |  | 0.1 |  |
| CCNC(=O)C1C[C@H](C)CCC1C(C)C (stereo in doubt) [WS-3, N-ethyl-p-menthane-3-carboxamide, reference compound] |  | 0.3 | sensitivity threshold (corrected data) [3]: 0.2 µg |
| CCOC(=O)CNC(=O)C1CC(C)CCC1C(C)C (stereo not drawn) [compound 10, ethyl ester of N-[[5-methyl-2-(1-methylethyl)cyclohexyl]carbonyl]glycine] |  | 0.2 | cooling strength relative to WS-3 (times stronger) [4]: 1.5 times; volatility (volatility): much lower volatility than menthol; sensitivity threshold (corrected data) [3]: 0.13 µg; cooling strength relative to compound 5 (times stronger) ([3]; from corrected thresholds 0.13 vs 0.2 μg): approximately 1.5 times |
| CCOC(=O)CNC(=O)C1CC(C)CCC1C(C)C (stereo not drawn) [Inventive Example 3 (A), ethyl ester of N-[[5-methyl-2-(1-methylethyl)cyclohexyl]carbonyl]glycine] | very strong tingling/cooling sensation |  |  |
| CCOC(=O)CNC(=O)C1CC(C)CCC1C(C)C (stereo not drawn) [Inventive Example 4, ethyl ester of N-[[5-methyl-2-(1-methylethyl)cyclohexyl]carbonyl]glycine] | very strong tingling/cooling sensation |  |  |
| CCOC(=O)CNC(=O)C1CC(C)CCC1C(C)C (stereo not drawn) [Inventive Example 5, ethyl ester of N-[[5-methyl-2-(1-methylethyl)cyclohexyl]carbonyl]glycine] | very strong tingling/cooling sensation |  |  |
| CCOC(=O)CNC(=O)C1CC(C)CCC1C(C)C (stereo not drawn) [Comparative Synthetic and Organoleptic Example 2] [ethyl ester of N-[[5-methyl-2-(1-methylethyl)cyclohexyl]carbonyl]glycine, reference compound] | strong tingling/cooling sensation |  |  |
| CCOC(=O)CNC(=O)C1CC(C)CCC1C(C)C (stereo not drawn) [Comparative Synthetic and Organoleptic Example 1] [ethyl ester of N-[[5-methyl-2-(1-methylethyl)cyclohexyl]carbonyl]glycine, reference compound] | noticeable tingling/cooling sensation |  |  |
| CCOC(=O)CNC(=O)C1CC(C)CCC1C(C)C (stereo not drawn) [Inventive Example 3, ethyl ester of N-[[5-methyl-2-(1-methylethyl)cyclohexyl]carbonyl]glycine] |  |  | tingling/cooling sensation ([1]; listed as Inventive Example 3 (B)): extremely strong and pleasant tingling/cooling sensation; cooling effect compared to basis solution of 10 ppm WS-3 ([5]; 3.5 ppm aqueous solution): approximately equal cooling effect; cooling effect compared to basis solution of 10 ppm WS-3 ([5]; 4 ppm aqueous solution): stronger and longer lasting cooling effect; cooling strength relative to WS-3 (times stronger) [5]: approximately 3 times |
| CCOC(=O)CNC(=O)C1CC(C)CCC1C(C)C (stereo not drawn) [Inventive Example 1, ethyl ester of N-[[5-methyl-2-(1-methylethyl)cyclohexyl]carbonyl]glycine] | very strong tingling/cooling sensation |  | cooling effect compared to basis solution of 10 ppm WS-3 ([5]; 4 ppm aqueous solution): approximately equal cooling effect; cooling effect compared to basis solution of 10 ppm WS-3 ([5]; 5 ppm aqueous solution): stronger and longer lasting cooling effect; cooling strength relative to WS-3 (times stronger) [5]: approximately 2.5 times |
